Reference: patent US4870071A, “Prophylactic and therapeutic agnet for hepatic disorder” (Senju Pharmaceutical Co., Ltd., priority 1986, dated 1989)
Entries after “also recorded” stand apart in the source; their conditions may differ. Each block holds one molecule with its values, some of them ahead of it.

How the values were obtained:
[1] = Transfer to plasma and plasma level duration after oral administration; type: in vivo, rabbits; details: for Transfer to bloodstream on oral administration: rabbit, in vivo
Method: The sera separated from the blood samples were deproteinized with trichloroacetic acid and, then, free cysteine in the sera as well as cysteine resulting from hydrolysis following heating was determined by fluorescence labeling and high performance liquid chromatography (HPLC).

hepatic disorder models = experiment: Hepatic disorder models, overall statement; type: in vivo; details: oral
[2] = test system: galactosamine-induced hepatopathy; experiment: Effect on galactosamine-induced hepatopathy; type: in vivo, Male Wistar rats
Method: Galactosamine-induced hepatopathy is caused by inhibition of glycoprotein and protein metabolisms and has been used as an experimental model since it pathologically resembles viral hepatitis.
(§1) Male Wistar rats were used after fasting.
Fifteen (15) hours later, a second administration was performed in the same dose. […] Twenty-four (24) hours thereafter, blood samples were collected for the assay of s-GOT and s-GPT.

[3] = Acute oral toxicity test in mice (LD50); details: mouse, in vivo
[4] = test system: acetaminophen-induced hepatic disorder; experiment: Effect on acetaminophen-induced hepatic disorder; type: in vivo, Male SD rats; details: 500 mg/kg oral, 1 hour before acetaminophen, 24 hours
Method: In this experiment, cysteineglucuronolactone and cysteineglucuronic acid salts (CG groups) were tested for their effects on acetaminophen-induced hepatic disorder in terms of their ability to suppress elevations in serum GOT, GPT, LDH and ALP. […] In the control and normal groups, 10 ml/kg of 0.5% CMC was orally administered and, in the CG groups, 500 mg/10 ml/kg of the respective compound was orally administered. An hour later, 400 mg/15 ml/kg of acetaminophen was intraperitoneally administered to the control and CG groups while 15 ml/kg of physiological saline was intraperitoneally administered to the normal group.

[5] = test system: CCl4-induced acute hepatic disorder; experiment: Effect on CCl4-induced acute hepatic disorder, (A)-1 (time of pre-administration); type: in vivo, Wistar-strain male rats
Method: Wistar-strain male rats were used after fasting.
The hepatic disorder inducer CCl4 was intraperitoneally administered to each group in a dose of 0.08 ml/kg (diluted with olive oil so as to give a dose volume of 5 ml/kg) and, after about 18 hours, the blood was sampled for the assay of s-GOT and s-GPT.

[6] = Solubility of the calcium salt; type: physicochemical
[7] = test system: CCl4-induced chronic hepatic disorder; experiment: Effect on CCl4-induced chronic hepatic disorder; type: in vivo, Male SD rats; details: for Pathological examination of the liver: H.E. staining, compared with control group
Method: Male SD rats were used in two groups, namely the control group and the CGCa group.
CCl4 was dissolved in olive oil in a concentration of 10% (w/v) and the solution was intraperitoneally administered in a dose of 5 ml/kg twice a week (Tuesday and Friday) for 10 weeks. Three days after the last CCl4 administration, blood samples were collected in each group for the assay of s-GOT, s-GPT, etc. Assay of liver hydroxyproline (HyP) and pathological examination of the liver following H.E. staining were also performed.

[8] = test system: CCl4-induced acute hepatic disorder; experiment: Effect on CCl4-induced acute hepatic disorder, (A)-2 (dose); type: in vivo, Male Wistar rats; details: for s-GOT / s-GPT: 10 hours before CCl4
Method: Ten hours later, CCl4 was intraperitoneally administered in a dose of 0.08 ml/kg. About 18 hours thereafter, the blood was sampled for the assay of s-GOT and s-GPT.

mice = experiment: Acute toxicity in mice, intravenous injection (LD50)
Excerpt: Acute toxicity of the compounds according
to the invention in terms of LD50
Referring to the above table, the injection No. 1 was adjusted to pH 7.0-7.2 by adding sodium carbonate after dissolution of the sample.

[9] = test system: alcohol-induced hepatopathy; experiment: Effect on alcohol-induced hepatopathy (liver TG); type: in vivo, Male Wistar rats
Method: as §1
After 13 hours, 20% alcohol was orally administered at 5 g/kg. After 8 hours, the liver was removed and TG was determined by the acetylacetone method.

[10] = test system: carbon tetrachloride-induced hepatic disorder; experiment: Further experiments with CGL and CGNa: suppression of s-GOT and s-GPT after CCl4; type: in vivo, rats; details: 2.0 g/kg oral 1 hour earlier than CCl4 0.08 ml/kg i.p.; versus control group
Method: In further experiments in which cysteineglucuronolactone (CGL) and sodium cysteineglucuronate (CGNa) were respectively administered orally in a dose of 2.0 g/kg 1 hour earlier than intraperitoneal administration of 0.08 ml/kg of CCl4, the percent suppressions of s-GOT and s-GPT obtained as compared with the control group were as shown below.

[11] = 2.0 g/kg oral twice, galactosamine hydrochloride 400 mg/kg i.p., 24 hours
[12] = CGCa I group, 2.0 g/kg oral 12 hours before CCl4
[13] = CGCa II group, 2.0 g/kg oral 10 hours before CCl4
[14] = CGCa III group, 2.0 g/kg oral 8 hours before CCl4
[15] = CGCa IV group, 2.0 g/kg oral 6 hours before CCl4
[16] = CGCa V group, 2.0 g/kg oral 4 hours before CCl4
[17] = 5% CGCa in diet, CCl4 twice a week for 10 weeks

SMILES: O=C(O)C1CSC(C(O)C(O)C(O)C(O)C(=O)O)N1 (stereo not shown) [cysteineglucuronic acid, Cysteineglucuronic acid]
Transfer to bloodstream on oral administration [1]: translocated into the bloodstream
depression of GOT (in words) (hepatic disorder models): significant depressions
depression of GPT (in words) (hepatic disorder models): significant depressions

SMILES: O=C(O)C1CSC(C(O)C(O)C(O)C(O)C(=O)O)N1 (stereo not shown) [CGCa, Calcium cysteineglucuronate]
s-GOT [2, 11]: 1643.1 ± 480.43 Karmen units
s-GPT [2, 11]: 702.3 ± 223.08 Karmen units
elevation of s-GOT (in words) ([2]; oral, p<0.05): inhibited the elevations significantly (p<0.05)
elevation of s-GPT (in words) ([2]; oral, p<0.05): inhibited the elevations significantly (p<0.05)
Lapse of time until free cysteine content in plasma began to increase ([1]; rabbits, oral 500 mg/kg): 2 h
Free cysteine content in plasma after 24 hours ([1]; rabbits, oral 500 mg/kg, 24 hours): at a normal value
Duration of increased blood cysteine levels compared with equimolar cysteine ([1]; rabbits, oral, versus equimolar amount of cysteine): increased blood cysteine levels can be maintained for a prolonged period
LD50 [3]: 7500 mg/kg
ALP [4]: 11.4 ± 1.52 BL (BesseyLowry) units
LDH [4]: 705.1 ± 283.3 Wroblewski units
s-GOT [4]: 284.2 ± 136.3 Karmen units
s-GPT [4]: 121.7 ± 33.7 Karmen units
CCl4-induced increase of s-GPT (in words) ([5]; 10 or 12 hours earlier administration, p<0.05): significantly suppressed
s-GOT [5, 12]: 1134.9 ± 361.57 Karmen units
s-GPT [5, 12]: 310.5 ± 68.08 Karmen units
s-GOT [5, 13]: 921.6 ± 198.34 Karmen units
s-GPT [5, 13]: 308.5 ± 42.30 Karmen units
s-GOT [5, 14]: 929.0 ± 201.14 Karmen units
s-GPT [5, 14]: 328.2 ± 105.72 Karmen units
s-GOT [5, 15]: 1493.3 ± 480.60 Karmen units
s-GPT [5, 15]: 502.4 ± 210.66 Karmen units
s-GOT [5, 16]: 1453.0 ± 515.58 Karmen units
s-GPT [5, 16]: 516.3 ± 166.50 Karmen units
CCl4-induced increase of s-GOT (in words) ([5]; administered 8 to 10 hours earlier than CCl4, p<0.05): significantly suppressed (p<0.05)
Solubility (in words) [6]: low solubility
elevation of LDH (in words) ([7]; 0.05<p<0.10): tended to suppress
ALP [7, 17]: 59.5 ± 23.83 King-Armstrong units
Albumin [7, 17]: 3.4 ± 0.28 g/dL
Cholinesterase [7, 17]: 0.014 ± 5.16 × 10^-3 ΔpH
LDH [7, 17]: 491.7 ± 312.24 Wroblewski units
Liver HyP [7, 17]: 371.6 ± 93.05 µg/g
Serum iron [7, 17]: 215.0 ± 39.01 µg/dL
Total bilirubin [7, 17]: 0.35 ± 0.108 mg/dL
s-GOT [7, 17]: 358.9 ± 157.13 Karmen units
s-GPT [7, 17]: 130.3 ± 53.56 Karmen units
γ-GTP [7, 17]: 3.0 ± 1.50 mU/ml
Pathological examination of the liver [7]: although vacuolar degeneration was found, the original lobular structure of the liver was preserved without evidence of hepatocirrhosis, such as formation of pseudolobules; also recorded: Necrosis was scattered and cellular infiltration was slight as compared with the control group; also recorded: effective against the damage and fibrosis of hepatocytes
Pathological examination of the liver ([7]; listed as CGC2): suppression of the fibrosis
elevation of hydroxyproline (HyP) (in words) ([7]; liver, p<0.05): significantly suppressed
elevation of s-GOT (in words) ([7]; p<0.05): significantly suppressed
elevation of s-GPT (in words) ([7]; p<0.05): significantly suppressed
increase in s-GOT ([8]; 1.43 g/kg): tendency toward suppression
increase of s-GPT (in words) ([8]; 1.43 g/kg, p<0.05): significantly suppressed
increase in s-GOT ([8]; 2.0 g/kg, p<0.05): significantly suppressed (p<0.05)
increase in s-GPT (in words) ([8]; 2.0 g/kg, p<0.05): significantly suppressed (p<0.05)
s-GOT ([8]; CGCa I group, 1.02 g/kg oral): 1755.6 ± 784.49 Karmen units
s-GPT ([8]; CGCa I group, 1.02 g/kg oral): 427.2 ± 131.72 Karmen units
s-GOT ([8]; CGCa II group, 1.43 g/kg oral): 1192.0 ± 264.07 Karmen units
s-GPT ([8]; CGCa II group, 1.43 g/kg oral): 309.5 ± 86.25 Karmen units
s-GOT ([8]; CGCa III group, 2.0 g/kg oral): 1106.2 ± 224.53 Karmen units
s-GPT ([8]; CGCa III group, 2.0 g/kg oral): 299.9 ± 79.85 Karmen units
Acute toxicity (in words) (mice): somewhat increased toxicity
Liver TG ([9]; 2.0 g/kg oral 13 hours before 20% alcohol 5 g/kg, 8 hours after alcohol): 4.4 ± 1.29 mg/g liver
increase of liver TG level due to alcohol (in words) ([9]; oral, p<0.05): significantly suppressed this increase (p<0.05)

SMILES: O=C(O)C1CSC(C(O)C(O)C(O)C(O)C(=O)O)N1 (stereo not shown) [CGNa, Sodium cysteineglucuronate]
Suppression of s-GOT [10]: 37.2%
Suppression of s-GPT [10]: 39.3%
ALP [4]: 10.4 ± 1.22 BL (BesseyLowry) units
LDH [4]: 557.2 ± 240.7 Wroblewski units
s-GOT [4]: 180.1 ± 63.0 Karmen units
s-GPT [4]: 78.4 ± 13.7 Karmen units

Transfer to bloodstream on oral administration [1]: translocated into the bloodstream
SMILES: O=C(O)C1CSC(C(O)C2OC(=O)C(O)C2O)N1 (stereo not shown) [CGL, Cysteineglucuronolactone]
depression of GOT (in words) (hepatic disorder models): significant depressions
depression of GPT (in words) (hepatic disorder models): significant depressions
Suppression of s-GOT [10]: 35.0%
Suppression of s-GPT [10]: 34.8%
ALP [4]: 10.7 ± 1.04 BL (BesseyLowry) units
LDH [4]: 540.3 ± 238.1 Wroblewski units
s-GOT [4]: 185.0 ± 83.3 Karmen units
s-GPT [4]: 85.5 ± 22.7 Karmen units

SMILES: O=C(O)C1CSC(C(O)C(O)C(O)C(O)C(=O)O)N1 (stereo not shown) [CGMg, Magnesium cysteineglucuronate]
ALP [4]: 12.8 ± 1.20 BL (BesseyLowry) units
LDH [4]: 857.5 ± 296.1 Wroblewski units
s-GOT [4]: 386.3 ± 88.1 Karmen units
s-GPT [4]: 141.9 ± 27.5 Karmen units
